From patent US20140162942A1, “INHIBITION OF CYP3A DRUG METABOLISM” (priority 2010, published 2014)
pIC50: −log10 of the molar value. Where two headings read alike, the source gives them in different places.

Assays:
CYP1A2 = target: T1, CYP1A2 (Homo sapiens, UniProt P05177); experiment: CYP1A2 inhibition, phenacetin O-deethylation in human liver microsomes; format: in vitro ADME; settings: for Potential for Time-Dep. Inhibition: comparison with and without 30-minute pre-incubation; for inhibition at 5 min, 100 µM: human, pH 7.4, probe phenacetin (O-deethylation), 60 μM
T1 construct: Pooled human liver microsomes (from sixteen individuals) were used as the source of enzymes; tissue XenoTech, LLC; host or cells: human liver microsomes, pool of sixteen donors
T1 sequence (P05177 1-516): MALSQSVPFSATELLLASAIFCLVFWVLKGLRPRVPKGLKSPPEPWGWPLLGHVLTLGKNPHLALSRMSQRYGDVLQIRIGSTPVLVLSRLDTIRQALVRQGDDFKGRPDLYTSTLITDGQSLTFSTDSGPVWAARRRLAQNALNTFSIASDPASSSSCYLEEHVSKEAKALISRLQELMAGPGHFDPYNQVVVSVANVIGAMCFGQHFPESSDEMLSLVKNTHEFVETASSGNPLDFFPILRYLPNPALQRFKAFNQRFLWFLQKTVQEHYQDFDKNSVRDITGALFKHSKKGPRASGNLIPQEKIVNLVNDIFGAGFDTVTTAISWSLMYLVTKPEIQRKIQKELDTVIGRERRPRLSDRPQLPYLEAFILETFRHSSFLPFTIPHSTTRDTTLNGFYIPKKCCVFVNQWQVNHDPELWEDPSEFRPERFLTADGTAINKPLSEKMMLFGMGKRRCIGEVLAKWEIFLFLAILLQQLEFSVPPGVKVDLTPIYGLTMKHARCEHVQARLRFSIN
Description: (§1) The basis for many of the following incubation conditions is described in the following references: Madan, et al., 2002,^(1) Huang, 2004,^(3) Ogilvie, et al., 2006,^(6) Pearce, et al., 1996,^(7) Tucker, et al., 2001,^(4) and Walsky and Obach, 2004.^(5) In general, incubations were conducted at approximately 37° C. in 400-μL incubation mixtures (target pH 7.4) containing high purity water, potassium phosphate buffer (50 mM), MgCl2 (3 mM), EDTA (1 mM), an NADPH-generating system [always the mixture of the following: NADP (1 mM), glucose-6-phosphate (5 mM), glucose-6-phosphate dehydrogenase (1 Unit/mL)], and marker substrate at the final concentrations indicated. Pooled human liver microsomes (from sixteen individuals) were used as the source of enzymes (Section 1.3.1.2). The concentrations of marker substrates were based on the Km and Vmax data that were determined previously (data not shown).
(§2) Due to the possibility that boceprevir may bind to microsomal protein or lipids, an attempt was made to design these experiments such that, in as many cases as possible, the microsomal protein, incubation time, and phosphate buffer concentration were 0.1 mg/mL, 5 minutes and 50 mM, respectively, for assays performed with human liver microsomes (Table 1). […] Since it is not imperative that the concentration of marker substrates be exactly equal to Km, the marker substrate concentrations were rounded up or down, as applicable, to simplify the experimental design (data not shown). […] Thus, the final incubation concentration of phenacetin was 60 μM (Table 1).
(§3) The ability of boceprevir to inhibit the CYP enzymes listed in Section 1.2.1 was investigated with a pool of sixteen individual human liver microsomal samples at the concentrations indicated in Table 1. Aliquots of the stock and/or working solutions of boceprevir were manually added to buffer mixtures containing the components described in Section 1.3.21. Incubation mixtures were prepared in bulk to obviate the need for directly pipetting very small volumes (i.e., 1 μL or less). Incubations containing no boceprevir (0 μM) contained the vehicle used to dissolve boceprevir (i.e., 1% methanol).
(§4) The Tecan liquid handling system conducted all remaining incubation steps, with the exception of the centrifugation. Aliquots of the buffer mixtures were then automatically added to 96-well plates at the appropriate locations in duplicate. Aliquots of a substrate working solution were added to the 96-well plates, prior to initiating reactions, to give the final concentrations indicated in Table 1. Reactions were initiated with the addition of an aliquot of an NADPH-generating system. Reactions were automatically terminated at approximately 5 minutes, by the addition of the appropriate internal standard (Table 5) and stop reagent; acetonitrile. Precipitated protein was removed by centrifugation (920 g for 10 minutes at 10° C.). Standards and quality control samples were similarly prepared with the addition of authentic metabolite standards.
(§5) To examine its ability to act as a time-dependent inhibitor, boceprevir (at the same concentrations used to evaluate direct inhibition) was pre-incubated at 37±1° C., in duplicate, with human liver microsomes and an NADPH-generating system for approximately 30 minutes. This pre-incubation allowed for the generation of intermediates that could inhibit human CYP enzymes. The pre-incubations were initiated with the addition of an aliquot of an NADPH-generating system. […] Reactions were automatically terminated, at approximately 5 minutes, by the addition of the appropriate internal standard (Table 5) and stop reagent; acetonitrile. Precipitated protein was removed by centrifugation (920 g for 10 minutes at 10° C.). Incubations containing no boceprevir (0 μM) and incubations that contained boceprevir but were not pre-incubated, served as negative controls.

[1] = Qualitative visual solubility in the test system; format: physicochemical; settings: 10 μL of 10 mM methanol stock in 990 μL buffer with human liver microsomes, pH 7.4
Description: A stock solution of boceprevir (target concentration of 10 mM) in methanol was prepared and solubility testing was conducted to qualitatively assess boceprevir solubility in the test system. An aliquot (10 μL) of the highest stock boceprevir solution (10 mM in methanol) was added to a 990-μL mixture (target pH 7.4) containing high purity water, potassium phosphate buffer (50 mM), MgCl2 (3 mM), EDTA (1 mM), and human liver microsomes (0.0125 and 0.1 mg/mL) at the final concentrations listed (for a total volume of 1000 μt). […] The stock solution (10 mM boceprevir for IC50 determinations), along with dilutions to working solutions (ranging from 0.01 to 3.0 mM boceprevir) were prepared fresh each day experiments were performed. […] These solutions were prepared fresh on the day the Ki determination experiment was performed. Additionally, a stock concentration of 0.3 mM was used in the NADPH dependence/effects of dilution, as well as the MIC formation experiment.

CYP2C19 = target: T2, CYP2C19 (Homo sapiens, UniProt P33261); experiment: CYP2C19 inhibition, S-mephenytoin 4′-hydroxylation in human liver microsomes; format: in vitro ADME; settings: for Potential for Time-Dep. Inhibition: comparison with and without 30-minute pre-incubation; for inhibition at 5 min, 100 µM: human, pH 7.4, probe S-mephenytoin (4′-hydroxylation)
T2 construct: Pooled human liver microsomes (from sixteen individuals) were used as the source of enzymes; tissue XenoTech, LLC; host or cells: human liver microsomes, pool of sixteen donors
Description: as §1, §2, §3, §4, §5

CYP2E1 = target: T3, CYP2E1 (Homo sapiens, UniProt P05181); experiment: CYP2E1 inhibition, chlorzoxazone 6-hydroxylation in human liver microsomes; format: in vitro ADME; settings: for Potential for Time-Dep. Inhibition: comparison with and without 30-minute pre-incubation
T3 construct: Pooled human liver microsomes (from sixteen individuals) were used as the source of enzymes; tissue XenoTech, LLC; host or cells: human liver microsomes, pool of sixteen donors
Description: as §1, §2, §3
The Tecan liquid handling system conducted all remaining incubation steps, with the exception of the centrifugation. Aliquots of the buffer mixtures were then automatically added to 96-well plates at the appropriate locations in duplicate. Aliquots of a substrate working solution were added to the 96-well plates, prior to initiating reactions, to give the final concentrations indicated in Table 1. Reactions were initiated with the addition of an aliquot of an NADPH-generating system. […]

[2] = direct inhibition, zero-minute pre-incubation, pooled human liver microsomes
[3] = pooled human liver microsomes, direct inhibition, zero-minute pre-incubation, read-out: Max. Inhib. at 100 μM
[4] = pooled human liver microsomes, time-dependent inhibition, 30-minute pre-incubation, read-out: Maximum Inhibition at 100 μM
[5] = time-dependent inhibition, 30-minute pre-incubation

T2 sequence (P33261 whole entry): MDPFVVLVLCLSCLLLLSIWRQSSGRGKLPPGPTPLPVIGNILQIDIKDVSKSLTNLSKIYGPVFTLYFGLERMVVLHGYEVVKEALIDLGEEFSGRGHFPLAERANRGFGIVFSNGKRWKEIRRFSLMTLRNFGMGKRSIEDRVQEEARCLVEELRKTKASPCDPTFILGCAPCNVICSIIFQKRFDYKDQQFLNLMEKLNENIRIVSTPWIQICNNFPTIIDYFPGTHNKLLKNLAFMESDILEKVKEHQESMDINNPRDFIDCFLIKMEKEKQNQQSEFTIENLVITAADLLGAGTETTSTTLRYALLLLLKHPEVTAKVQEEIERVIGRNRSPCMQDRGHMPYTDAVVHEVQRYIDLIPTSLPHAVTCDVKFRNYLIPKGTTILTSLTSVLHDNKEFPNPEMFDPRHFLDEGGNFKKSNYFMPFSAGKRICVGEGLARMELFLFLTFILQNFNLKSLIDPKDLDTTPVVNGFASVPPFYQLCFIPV
T3 sequence (P05181 whole entry): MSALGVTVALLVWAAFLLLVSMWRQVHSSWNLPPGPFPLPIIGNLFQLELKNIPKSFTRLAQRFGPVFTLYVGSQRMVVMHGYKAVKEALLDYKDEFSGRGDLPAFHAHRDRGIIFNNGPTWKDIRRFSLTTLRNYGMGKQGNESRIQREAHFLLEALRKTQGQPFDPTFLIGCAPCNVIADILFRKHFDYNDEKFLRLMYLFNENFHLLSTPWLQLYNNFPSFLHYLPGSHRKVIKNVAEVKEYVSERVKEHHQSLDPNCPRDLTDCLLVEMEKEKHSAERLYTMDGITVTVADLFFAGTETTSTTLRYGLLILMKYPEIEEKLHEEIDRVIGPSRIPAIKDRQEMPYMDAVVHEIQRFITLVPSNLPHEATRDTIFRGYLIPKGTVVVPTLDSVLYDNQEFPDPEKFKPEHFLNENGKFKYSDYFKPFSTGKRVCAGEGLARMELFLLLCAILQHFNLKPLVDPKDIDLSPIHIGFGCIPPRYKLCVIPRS

## CC(C)(C)NC(=O)NC(C(=O)N1CC2C([C@H]1C(=O)NC(CC1CCC1)C(=O)C(N)=O)C2(C)C)C(C)(C)C (stereo partly drawn) [Boceprevir, (1R,2S,5S)—N-[(2Ξ)-4-amino-1-cyclobutyl-3,4-dioxobutan-2-yl]-3-{(2S)-2-[(tert-butylcarbamoyl)amino]-3,3-dimethylbutanoyl}-6,6-dimethyl-3-azabicyclo[3.1.0]hexane-2-carboxamide]
CYP1A2
  Potential for Time-Dep. Inhibition: little or no
CYP1A2; listed as boceprevir
  Potential for Time-Dep. Inhibition: no discernable time-dependent inhibition
CYP1A2; [2]
  pIC50: < 4.00
CYP1A2; [3]
  inhibition at 5 min, 100 µM: 22%
CYP1A2; [4]
  inhibition at 5 min, 100 µM: 9.8%
CYP1A2; [5]
  pIC50: < 4.00
[1]
  Solubility in the test system (qualitative visual comparison): soluble
CYP2C19
  Potential for Time-Dep. Inhibition: little or no
CYP2C19; listed as boceprevir
  Potential for Time-Dep. Inhibition: no discernable time-dependent inhibition
CYP2C19; [2]
  pIC50: < 4.00
CYP2C19; [3]
  inhibition at 5 min, 100 µM: 25%
CYP2C19; [4]
  inhibition at 5 min, 100 µM: 14%
CYP2C19; [5]
  pIC50: < 4.00
CYP2E1
  Potential for Time-Dep. Inhibition: little or no
CYP2E1; listed as boceprevir
  Potential for Time-Dep. Inhibition: no discernable time-dependent inhibition
CYP2E1; [2]
  pIC50: < 4.00
CYP2E1; [5]
  pIC50: < 4.00
